{
  "source": "patent US8257700B2",
  "about": "“Proteomic analysis of active multiple sclerosis lesions” (The Board of Trustees of the Leland Stanford Junior …, priority 2008, dated 2012)",
  "key": {"rheumatoid arthritis": {"system": "rheumatoid arthritis", "settings": "cited from earlier work"}, "[1]": {"system": "MS relapses and active EAE", "settings": "during MS relapses and active EAE; cited from earlier work"}, "EAE mice": {"system": "EAE mice", "test": "EAE induced with PLP139-151 in SJL/J mice, daily clinical score", "assay_type": "in vivo, mouse (SJL/J)", "settings": "for clinical status (mean clinical score), time of amelioration: recombinant human aPC variants 0.46 mg/kg daily i.v. from maximal paralysis until day 30, vs PBS", "description": "EAE induction, treatment with hirudin, aPC (WT and mutants), proliferation assays, cytokine analysis and quantitative histopathology. Mice were maintained in the Research Animal Facility at Stanford University. EAE was induced in 7-8 week old SJL/J female mice by subcutaneous immunization with 100 μg PLP139-151 in emulsion. For hirudin or aPC treatment, EAE mice (n=10/group) were treated with daily intravenous injection of hirudin (10 mg/kg) or mouse recombinant aPC-WT (0.2 mg/kg) at the peak of disease and compared with PBS treated group. Mice were assessed daily for clinical signs of EAE and scored according to: 0, no clinical disease; 1, tail weakness; 2, hindlimb weakness; 3, complete hindlimb paralysis; 4, hindlimb paralysis and some forelimb weakness; 5, moribund or dead.\nRecombinant human aPC-WT and mutants (aPC-L8W and aPC-K193E) were prepared as described by Grinnell et al (2007) Critical Care Medicine (suppl). These aPC variants have the following properties on aPTT and PAR-1 signaling function: aPC-WT: aPTT (relative activity)=1, PAR-1 (relative activity)=1, aPC-L8W: aPTT=1, PAR-1=0.02 and aPC-K193E: aPTT=0.03, PAR-1=1. EAE mice (n=7/group) were treated with daily intravenous injection of recombinant human aPC-WT, aPC-L8W, aPC-K193E (0.46 mg/kg) or PBS (control group) at the time of maximal paralysis and assessed daily until day 30."}, "aPTT": {"system": "aPTT", "settings": "cited from earlier work; for aPTT (relative activity): relative to aPC-WT"}, "PAR-1": {"biological_target": "T1, PAR-1 (Homo sapiens, UniProt P25116)", "T1 sequence (P25116 22-425)": "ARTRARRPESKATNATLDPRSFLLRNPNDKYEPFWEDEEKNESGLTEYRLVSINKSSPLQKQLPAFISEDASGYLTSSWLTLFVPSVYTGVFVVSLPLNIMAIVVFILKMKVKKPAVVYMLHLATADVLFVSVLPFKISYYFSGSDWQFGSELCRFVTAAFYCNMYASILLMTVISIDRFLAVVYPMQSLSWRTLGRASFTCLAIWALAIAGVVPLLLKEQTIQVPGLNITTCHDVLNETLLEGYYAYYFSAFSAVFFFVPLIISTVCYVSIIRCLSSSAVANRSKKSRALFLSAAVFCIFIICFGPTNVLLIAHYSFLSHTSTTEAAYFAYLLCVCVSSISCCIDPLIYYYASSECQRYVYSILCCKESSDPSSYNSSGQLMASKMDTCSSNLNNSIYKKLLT", "settings": "cited from earlier work"}, "[2]": {"system": "splenocytes and lymph node cells", "test": "In vitro proliferation (3H-thymidine) of splenocytes and lymph node cells from treated EAE mice, activated with PLP peptide", "assay_type": "cell-based, mouse (SJL/J)", "description": "(§1) In vitro immune cell proliferation and cytokine analysis were performed as previously described (Ousman et al. (2007) Nature 448, 474-9). Briefly, splenocytes and lymph node cells harvested from EAE experiments were cultured in flat-bottomed, 96-well plates at a concentration of 0.5×10^6 cells/well in stimulation media (RPMI 1640 supplemented with 2 mM L-glutamine, 1 mM sodium pyruvate, 0.1 mM non-essential amino acids, 100 U/ml^2 Penicillin, 0.1 mg/ml^2 streptomycin, 0.5 μM 2-mercaptoethanol and 10% fetal calf serum) and activated with PLP139-151 peptide (5-20 μg/ml). To determine proliferation rates, cultures were pulsed with (^3H)-Thymidine (1 μCi per well) following 72-hour culture and harvested 18 hours later onto filter paper. The counts per minute (cpm) of incorporated ^3H-Thymidine were read using a beta counter. Cytokine levels (IL-2, IL-4, IL-6, IL-10, IL-12p40, IL-17, IFN-γ, TNF) were measured from the supernatant of cultured cells using anti-mouse OPTEIA ELISA kits (BD Pharmigen)."}, "[3]": {"system": "splenocytes and lymph node cells", "test": "Cytokine production (ELISA) of splenocytes and lymph node cells from treated EAE mice", "assay_type": "cell-based, mouse (SJL/J)", "description": "as §1"}, "[4]": {"system": "brain and spinal cord of EAE mice", "test": "Quantitative histopathology: inflammatory foci in brain and spinal cord of EAE mice", "assay_type": "in vivo, mouse (SJL/J)", "description": "For histopathological analysis, brains and spinal cord of EAE mice were fixed in 10% formaldehyde. […] paraffin sections were stained with LFB and H&E and the number of inflammatory foci within the brain and spinal cord were quantified by a neuropathologist who was blinded to the treatment and clinical parameters of the mice."}, "[5]": {"system": "primary peritoneal macrophages", "test": "Peritoneal macrophage activation with LPS, cytokine ELISA", "assay_type": "cell-based, mouse (SJL/J)", "settings": "30 nM recombinant murine aPC pre-treatment, LPS 100 ng/ml", "description": "Primary peritoneal macrophages were isolated from naïve 8-9 weeks old SJL/J mice following intraperitoneal injection of thioglycollate (BD Diagnostic Systems) and cultured in complete medium (DMEM supplemented with 10% fetal bovine serum, 1 mM sodium pyruvate, […] and 0.1 mg/ml streptomycin). Cells (1×10^6 cells/ml) were treated with 30 nM recombinant murine aPC for 15 minutes, then activated with LPS 100 ng/ml (Sigma), harvested at different time points (15 min-72 hours), and cytokine levels were measured."}, "primary astrocytes": {"system": "primary astrocytes", "test": "Primary astrocyte activation with LPS, cytokine ELISA", "assay_type": "cell-based, mouse (SJL/J)", "settings": "30 nM recombinant murine aPC pre-treatment, LPS 100 ng/ml", "description": "Astrocyte culture. Astrocytes were cultured from brain of one-day-old SJL/J pups as described previously. Briefly, the cerebral cortices from pups were minced, cells were disrupted by passing through a filter and cultured in complete DMEM. Purified astrocytes (50-80% confluent) were treated with 30 nM recombinant murine aPC for 15 minutes and activated with 100 ng/ml LPS (Sigma). Cells were harvested at 4, 24, 48 and 72-hours, and supernatant were analyzed by ELISA for cytokine production."}, "purified T cells": {"system": "purified T cells", "test": "Purified T cell activation with CD3/CD28, cytokine ELISA", "assay_type": "cell-based, mouse (SJL/J)", "settings": "30 nM recombinant murine aPC pre-treatment, CD3/CD28 5 μg/ml", "description": "In vitro Immune cell activation assays and cytokine analysis. T lymphocytes were isolated from pooled splenocytes and lymph node cells from 8 week-old naïve SJL/J mice by negative selection (Pan T cell isolation kit, Miltenyi Biotech). Cells were pre-treated with 30 nM recombinant murine aPC for 15 mins at 37° C. followed by activation with CD3/CD28 (5 μg/ml) coated on 12 well plates. Cells were cultured at 5×10^6 cells/ml concentration in stimulation media. Culture plates were harvested at different time points (15 min-96 hours) and cytokine levels were measured from culture supernatant by ELISA."}, "NF-κB signalling (IκB-α)": {"system": "NF-κB signalling (IκB-α)", "test": "Western blot of IκB-α in T cells (NF-κB activation)", "assay_type": "cell-based, mouse (SJL/J)", "settings": "T cells treated with murine aPC, cell activation assay", "description": "Western blot analysis. For NF-κB activation, total cell lysate from purified T cells treated with aPC were analyzed by SDS-PAGE, transferred to PVDF membrane, probed with antibodies against IκB-α, and β-actin and the signal was visualized by enhanced chemiluminescence."}, "[6]": {"test": "Anti-hirudin antibodies in serum of treated EAE mice", "assay_type": "in vivo, mouse", "settings": "EAE mice treated with hirudin"}, "[7]": {"settings": "cells from aPC-treated vs PBS-treated mice"}, "[8]": {"settings": "hirudin 10 mg/kg daily i.v. from peak of disease"}, "[9]": {"settings": "cells from hirudin-treated vs vehicle-treated mice"}},
  "data": [
    {"compound": "CN(Cc1cnc2nc(N)nc(N)c2n1)c1ccc(C(=O)N[C@@H](CCC(=O)O)C(=O)O)cc1", "note": "[MTX, Methotrexate]", "values": [
      {"measurement": "patients having some response", "setting": "rheumatoid arthritis", "result": 70, "unit": "%"},
      {"measurement": "onset of action", "setting": "rheumatoid arthritis; patients", "result": "4-6 weeks"}
    ]},
    {"compound": "Heparin", "values": [
      {"measurement": "symptoms", "setting": "[1]", "result": "improve symptoms"}
    ]},
    {"compound": "aPC-K193E: recombinant human aPC mutant; mainly participates in PAR-1 signalling and lacks anticoagulant activities", "values": [
      {"measurement": "clinical status (mean clinical score), time of amelioration", "setting": "EAE mice", "result": "significant amelioration early in the disease course (days 20-25)"},
      {"measurement": "anticoagulant properties (in words)", "setting": "aPTT", "result": "lacks anticoagulant activities"},
      {"measurement": "aPTT (relative activity)", "setting": "aPTT", "result": 0.03},
      {"measurement": "PAR-1 signalling (in words)", "setting": "PAR-1", "result": "mainly participates in PAR-1 signalling"}
    ]},
    {"compound": "aPC-L8W: recombinant human aPC mutant; retains anticoagulant properties but lacks PAR-1 signalling, defective EPCR interaction at L8", "values": [
      {"measurement": "clinical status (mean clinical score), time of amelioration", "setting": "EAE mice", "result": "significant amelioration early in the disease course (days 20-25)"},
      {"measurement": "anticoagulant properties (in words)", "setting": "aPTT", "result": "retains anticoagulant properties"},
      {"measurement": "aPTT (relative activity)", "setting": "aPTT", "result": 1},
      {"measurement": "PAR-1 signalling (in words)", "setting": "PAR-1", "result": "lacks PAR-1 signalling"}
    ]},
    {"compound": "aPC-WT: recombinant human activated protein C wild type", "values": [
      {"measurement": "clinical status (mean clinical score), time of amelioration", "setting": "EAE mice", "result": "improvement in the latter part of disease course (days 25-30)"}
    ]},
    {"compound": "aPC: recombinant murine activated protein C, provided by Lilly Research Laboratories", "values": [
      {"measurement": "relapse rates", "setting": "EAE mice; recombinant murine aPC 0.2 mg/kg", "result": "no effect"},
      {"measurement": "disease severity (mean clinical score)", "setting": "EAE mice; recombinant murine aPC 0.2 mg/kg daily i.v. from peak of disease vs PBS", "result": "significant amelioration of disease severity"},
      {"measurement": "immune cell proliferation in splenocytes and lymph node cells", "setting": "[2]; [7]", "result": "decreased immune cell proliferation"},
      {"measurement": "Th1 and Th17 cytokines", "setting": "[3]; [7]", "result": "inhibition"},
      {"measurement": "inflammatory foci in the CNS tissue", "setting": "[4]; aPC-treated vs PBS", "result": "fewer inflammatory foci"},
      {"measurement": "IL6 production", "setting": "[5]", "result": "less"},
      {"measurement": "IL17 production", "setting": "[5]", "result": "less"},
      {"measurement": "IL6 production", "setting": "primary astrocytes", "result": "less"},
      {"measurement": "IL17 production", "setting": "primary astrocytes", "result": "less"},
      {"measurement": "IL17 levels", "setting": "purified T cells", "result": "low levels"},
      {"measurement": "IκB breakdown", "setting": "NF-κB signalling (IκB-α)", "result": "less IκB breakdown"}
    ]},
    {"compound": "hirudin: thrombin inhibitor hirudin (Refludan, recombinant lepirudin, Berlex)", "values": [
      {"measurement": "disease course", "setting": "EAE mice; [8]", "result": "no effect"},
      {"measurement": "relapse rates", "setting": "EAE mice; [8]", "result": "no effect"},
      {"measurement": "disease severity (mean clinical score)", "setting": "EAE mice; hirudin 10 mg/kg daily i.v. from peak of disease vs PBS", "result": "dramatic improvement of disease severity"},
      {"measurement": "time up to which amelioration of EAE was observed", "setting": "EAE mice; hirudin treatment", "result": "≤ 35", "unit": "days"},
      {"measurement": "immune cell proliferation", "setting": "[2]; cells from hirudin-treated vs PBS-treated mice, PLP activated", "result": "decreased immune cell proliferation"},
      {"measurement": "IL4 production", "setting": "[3]; [9]", "result": "no differences"},
      {"measurement": "IL-6 production", "setting": "[3]; [9]", "result": "suppression"},
      {"measurement": "IL-10 production", "setting": "[3]; [9]", "result": "no differences"},
      {"measurement": "IL-12 production", "setting": "[3]; [9]", "result": "no differences"},
      {"measurement": "IL-17 production", "setting": "[3]; [9]", "result": "suppression"},
      {"measurement": "interferon-γ (IFN-γ) production", "setting": "[3]; [9]", "result": "no differences"},
      {"measurement": "tumor necrosis factor (TNF) production", "setting": "[3]; [9]", "result": "suppression"},
      {"measurement": "inflammatory foci in brains and spinal cords", "setting": "[4]; hirudin-treated vs PBS", "result": "fewer inflammatory foci"},
      {"measurement": "anti-hirudin antibodies in serum", "setting": "[6]", "result": "presence of anti-hirudin antibodies"}
    ]}
  ]
}
